According to patent publication US10995068B2, “Synthetic sphingolipid-like molecules, drugs, methods of their synthesis and methods of treatment” (The Regents of the University of California, priority 2015, dated 2021):

What was measured:
[1] = Blood cell count of pDKO mice; type: in vivo; settings: for % lymphocyte / % neutrophil / Red Blood Cells / White Blood Cells / Hematocrit: pDKO mice, at sacrifice; for White Blood Cells: Means ± SEM, n = 4; for Hematocrit: in % (unit assumed)
Procedure: In vivo studies. Experiments conducted in mice were performed in accordance with the Institutional Animal Care and Use Committee of University of California, Irvine following a power analysis conducted in consultation with the Biostatistics Shared Resource of Chao Family Comprehensive Cancer Center at UCI. Xenografts were produced by injecting 5 million cells subcutaneously in the flank of 10-16 week-old male or female NSG mice. Prostate isografts were produced in the same manner but in male 6-8 wk old C57BL/6 mice. Once tumors reached 100 mm^3, SH-BC-893 was administered by intraperitoneal (i.p.) injection or oral gavage as indicated. Tumor volume was calculated using the formula, volume (mm^3)=length [mm]×(width [mm])^2×0.52; BLI was measured using an IVIS imaging system (Xenogen). To generate pDKO mice on the C57BL6 background, Pten^flox mice (stock No. 0045597) and p53^flox mice (stock No. 008462) were obtained from the Jackson Laboratory and PB-Cre4 mice (strain #01XF5) were obtained from the NCI-Frederick Mouse Repository. Age-matched cohorts of pDKO males were generated by in vitro fertilization executed with the assistance of the Transgenic Mouse Facility at UC Irvine. Treatment was begun at 6-7 wks of age. […] Tumor samples were processed and imaged by the Pathology Research Services Core Facility at UC Irvine. Blood chemistry was analyzed by IDEXX BioResearch and complete blood counts were performed using a Hemavet hematology system.

[2] = tested on: normal human peripheral blood mononuclear cells (PBMC); assay: Colony formation assay, PBMC; type: cell-based
Procedure: The difference in sensitivity stems from the inability of neoplastic cells to adapt to decreases of metabolism.
Cell analysis: Viability and 4F2hc expression are determined by vital dye exclusion and flow cytometry. Oxygen consumption is measured with an XF24 Extracellular Flux Analyzer (Seahorse Bioscience); values are normalized to total protein. Confocal microscopy is performed on either a Zeiss LSM780 or a Nikon Eclipse Ti; vacuolation was monitored using a Nikon TE2000-S equipped with DIC filters. Anchorage-independent growth of SW620 cells is measured in DMEM-10 containing 0.35% agarose with a 0.5% agarose bottom layer. PBMNCs are obtained from the normal blood donor program run by the CTSA-supported Institute for Clinical and Translational Science at UCI under IRB protocols 2015-1883 (Edinger) and 2001-2058 (ICTS). […] Plates were incubated at 37° C. in a humidified atmosphere containing 5% CO2 and colonies were counted after 12 days.
Cell culture and reagents. […] Cell viability was measured by vital dye exclusion using either propidium iodide or DAPI at 1 μg/ml. Analysis of cell surface 4F2hc levels with PE-conjugated anti-CD98 was restricted to viable cells as determined by DAPI exclusion. Anchorage-independent growth of SW620 cells was measured in DMEM-10 containing 0.35% low melt agarose with a 0.5% agarose bottom layer. […]

## CCCCCCCCc1ccc([C@H]2CCN[C@@H]2CO)cc1.Cl [Compound 5, (2S,3R)-2-(hydroxymethyl)-3-(4-octylphenyl)Pyrrolidinium chloride]
[1]; mice treated with 120 mg/kg for 11 weeks
  complete blood counts (in words): normal complete blood counts
[1]; 60 mg/kg
  % lymphocyte: 77 ± 4%
  % neutrophil: 14 ± 3%
  Red Blood Cells: 8 ± 1 M/μL
  White Blood Cells: 5 ± 1 10^3 cells/μL
  Hematocrit: 32 ± 5
[1]; 120 mg/kg
  % lymphocyte: 73 ± 5%
  % neutrophil: 19 ± 5%
  Red Blood Cells: 9 ± 1 M/μL
  White Blood Cells: 8 ± 1 10^3 cells/μL
  Hematocrit: 41 ± 3
[2]
  sensitivity in colony formation assays: resistant
